Active and inactive are the calls of the source. Bounds are passed on as bounds.

The record followed here is ChEMBL document CHEMBL1201862, “PubChem BioAssay data set” (2004).

The nature of experiment [1]: T. cruzi growth inhibition in host cells, dose response, cell-based, plate reader, dry powder, set 2 (AID 652275). It is filed as functional.
A further experiment concerns the target Albumin (Bos taurus, UniProt P02769). Kind of experiment: Counterscreen for inhibitors of T-cell receptor (TCR)-CD3 interaction: Fluorescence-based biochemical high throughput dose response assay to identify inhibitors of T-cell receptor (TCR)-CD3 interaction using a TAMRA-labeled BSA probe. Type of experiment: functional. (Counterscreens check selectivity or assay interference.)

In experiment [2] the target is T1, Oxysterols receptor LXR-beta (Homo sapiens, UniProt P55055).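 Note: agonist activity at LXR measured by a cell-based luminescence readout across a dose range, run as a counterscreen for daf-12 agonists; HEK293 cells with Gal4-LXR fusion and GAL4-driven luciferase reporter; potency for activation of Gal4-LXR reporter so compounds are agonists.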
T1 sequence (P55055 whole entry): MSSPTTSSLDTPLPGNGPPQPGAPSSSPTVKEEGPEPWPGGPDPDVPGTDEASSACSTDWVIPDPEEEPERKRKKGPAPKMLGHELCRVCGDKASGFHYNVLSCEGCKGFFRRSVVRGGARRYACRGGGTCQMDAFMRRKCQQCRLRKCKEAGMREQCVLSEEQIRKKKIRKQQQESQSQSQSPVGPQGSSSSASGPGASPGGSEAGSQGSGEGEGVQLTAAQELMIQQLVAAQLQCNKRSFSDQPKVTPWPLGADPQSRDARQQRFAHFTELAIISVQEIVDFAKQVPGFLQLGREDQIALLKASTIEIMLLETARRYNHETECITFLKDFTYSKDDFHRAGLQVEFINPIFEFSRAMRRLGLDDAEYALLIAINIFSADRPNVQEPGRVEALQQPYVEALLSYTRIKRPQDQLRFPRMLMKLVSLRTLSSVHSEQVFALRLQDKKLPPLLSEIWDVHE
Type of experiment: functional, cell-based.

The subject of another experiment is INS1. Kind of experiment: beta cell apoptosis inhibitors, cytokine rescue, dose response, luminescence, retest (AID 449756).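 Note: cell death triggered by IL-1 beta plus TNF-alpha plus IFN-gamma mixture; protective hits raise ATP signal compared with cytokine alone wells.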 Type of experiment: functional, cell-based. As to conditions: Rattus norvegicus.
Experiment [3] has as its target Induced myeloid leukemia cell differentiation protein Mcl-1 (Homo sapiens, UniProt Q07820). Type of experiment: functional.
Experiment [4] is described as follows: NIH-3T3 fibroblast cytotoxicity, dose response, cytotoxicity control, cell-based, fluorescence, Alamar Blue, secondary assay (AID 2327).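 Note: NIH-3T3 mouse fibroblasts cultured with fluconazole at 8 µg/mL.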 Type of experiment: functional. In general terms: Alamar Blue is a resazurin reagent that responds to reducing activity.
Experiment [5] can be described thus: cytotoxicity toward NIH3T3 fibroblasts, dose response, counter-screen, cell-based, ATP luminescence, mouse fibroblasts (AID 2010).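 Note: cells exposed to compound for about 90 hours before reading.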 It is filed as functional.
Experiment [6] can be described thus: inhibitors of intracellular T. cruzi replication, confirmation, NIH3T3 host cells, beta-gal luminescence (AID 2044).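 Note: intracellular parasites grown in NIH/3T3 mouse fibroblasts as host cells; luminescent beta-galactosidase reporter signal from transgenic T. cruzi replicating inside host cells; inhibitors lower the luminescence signal.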 Type of experiment: functional, cell-based.
The nature of experiment [7]: C. albicans growth with fluconazole, confirmation, fluorescence, retest (AID 2467). Type of experiment: functional, cell-based.
Another experiment addresses Cytochrome P450 2C19 (Homo sapiens, UniProt P33261). Kind of experiment: Cytochrome panel assay with activity outcomes. Panel member name: p450-cyp2c19 Compounds with AC50 equal or less than 10 uM are considered active. Particulars: read-out: AC50. It is filed as functional.
The target of the next experiment is Cytochrome P450 2C9 (Homo sapiens, UniProt P11712).
Cytochrome P450 2C9, sequence (P11712 whole entry): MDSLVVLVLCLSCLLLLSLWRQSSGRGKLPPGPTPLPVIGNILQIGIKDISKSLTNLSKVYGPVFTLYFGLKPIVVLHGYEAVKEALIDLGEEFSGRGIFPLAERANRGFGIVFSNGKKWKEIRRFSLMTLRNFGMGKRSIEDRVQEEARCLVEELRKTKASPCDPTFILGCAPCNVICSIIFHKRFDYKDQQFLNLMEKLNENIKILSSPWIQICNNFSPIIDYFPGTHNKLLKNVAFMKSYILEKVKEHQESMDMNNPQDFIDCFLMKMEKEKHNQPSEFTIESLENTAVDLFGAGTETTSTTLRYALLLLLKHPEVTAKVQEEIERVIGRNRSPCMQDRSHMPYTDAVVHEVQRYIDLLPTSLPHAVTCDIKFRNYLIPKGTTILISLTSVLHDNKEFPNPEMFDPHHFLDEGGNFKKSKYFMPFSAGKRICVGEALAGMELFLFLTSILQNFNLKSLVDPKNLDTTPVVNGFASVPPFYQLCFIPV
In a further experiment the target is T2, fMet-Leu-Phe receptor (Homo sapiens, UniProt P21462).
T2 sequence (P21462 whole entry): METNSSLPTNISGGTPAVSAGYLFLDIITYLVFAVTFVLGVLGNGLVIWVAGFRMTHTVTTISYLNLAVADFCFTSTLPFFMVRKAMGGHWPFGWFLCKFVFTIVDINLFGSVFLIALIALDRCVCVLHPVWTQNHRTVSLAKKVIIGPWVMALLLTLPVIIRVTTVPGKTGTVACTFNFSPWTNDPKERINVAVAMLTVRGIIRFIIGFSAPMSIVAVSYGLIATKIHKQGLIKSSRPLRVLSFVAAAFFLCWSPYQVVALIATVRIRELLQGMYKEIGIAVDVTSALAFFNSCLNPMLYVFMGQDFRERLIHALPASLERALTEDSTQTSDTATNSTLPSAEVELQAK
Kind of experiment: FPR ligands, dose response (AID 519). Type of experiment: functional.

Experiment [8] is described as follows: cells. It is filed as functional, cell-based.
Experiment [9] in a line: cells. Type of experiment: functional, cell-based. The source holds these as a separate data set.
Another experiment deals with T3, Aminopeptidase N (Plasmodium falciparum FcB1/Columbia, UniProt O96935).
T3 sequence (O96935 whole entry): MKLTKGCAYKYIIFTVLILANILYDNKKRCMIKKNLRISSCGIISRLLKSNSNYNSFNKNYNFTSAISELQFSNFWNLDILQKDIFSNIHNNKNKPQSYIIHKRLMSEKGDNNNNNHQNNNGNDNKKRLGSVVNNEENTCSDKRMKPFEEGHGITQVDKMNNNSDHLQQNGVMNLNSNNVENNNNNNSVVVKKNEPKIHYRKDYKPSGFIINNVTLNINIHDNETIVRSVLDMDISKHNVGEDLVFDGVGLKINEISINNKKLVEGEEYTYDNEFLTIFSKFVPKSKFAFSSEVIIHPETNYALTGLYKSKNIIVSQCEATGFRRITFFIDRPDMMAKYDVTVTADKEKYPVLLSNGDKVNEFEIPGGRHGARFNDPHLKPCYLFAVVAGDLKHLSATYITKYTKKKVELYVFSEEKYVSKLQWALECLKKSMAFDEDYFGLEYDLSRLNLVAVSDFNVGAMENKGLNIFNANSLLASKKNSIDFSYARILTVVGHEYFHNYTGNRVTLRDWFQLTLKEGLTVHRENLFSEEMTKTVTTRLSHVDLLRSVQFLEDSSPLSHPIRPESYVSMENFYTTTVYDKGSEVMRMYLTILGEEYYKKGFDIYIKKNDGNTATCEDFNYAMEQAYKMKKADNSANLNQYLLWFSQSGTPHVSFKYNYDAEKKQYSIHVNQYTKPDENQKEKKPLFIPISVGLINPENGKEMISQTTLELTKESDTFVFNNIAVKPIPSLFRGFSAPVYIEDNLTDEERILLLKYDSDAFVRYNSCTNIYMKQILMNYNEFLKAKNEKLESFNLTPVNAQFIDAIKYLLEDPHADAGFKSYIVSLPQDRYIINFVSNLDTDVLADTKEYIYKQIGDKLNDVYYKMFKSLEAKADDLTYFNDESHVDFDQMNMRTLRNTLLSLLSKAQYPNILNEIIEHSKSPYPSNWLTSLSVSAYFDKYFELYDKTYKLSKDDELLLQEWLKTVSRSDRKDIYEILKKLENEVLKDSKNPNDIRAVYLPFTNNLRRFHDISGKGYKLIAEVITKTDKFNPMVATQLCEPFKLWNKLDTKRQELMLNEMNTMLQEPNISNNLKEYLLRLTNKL
Kind of experiment: P. falciparum M1AAP inhibitors, biochemical, fluorogenic H-Leu-NHMec substrate, 1536-well (AID 1445). Also on record: species or system Plasmodium falciparum 3D7, 3D7.

Another experiment concerns HeLa. Kind of experiment: HeLa cell cytotoxicity, dose response, cytotoxicity control, ATP luminescence, cherry-pick samples (AID 687004). Type of experiment: functional, cell-based. Particulars: Homo sapiens.
Experiment [10] in a line: cells. Type of experiment: functional, cell-based. This is another data set of the same source.
Experiment [11] deals with T4, Trace amine-associated receptor 1 (Homo sapiens, UniProt Q96RJ0).
T4 sequence (Q96RJ0 whole entry): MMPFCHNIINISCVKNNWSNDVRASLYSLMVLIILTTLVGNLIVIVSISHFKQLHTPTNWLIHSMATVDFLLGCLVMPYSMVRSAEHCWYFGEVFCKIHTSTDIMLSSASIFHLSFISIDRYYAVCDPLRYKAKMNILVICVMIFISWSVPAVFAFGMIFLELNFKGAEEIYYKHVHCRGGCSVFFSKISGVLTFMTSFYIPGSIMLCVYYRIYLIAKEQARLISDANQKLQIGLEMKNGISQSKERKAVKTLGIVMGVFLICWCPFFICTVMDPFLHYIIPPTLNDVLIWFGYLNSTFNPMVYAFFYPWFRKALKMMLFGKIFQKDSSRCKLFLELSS
Kind of experiment: Counterscreen for agonists of the human trace amine associated receptor 1 (hTAAR1): Fluorescence-based cell-based high throughput dose response assay to identify hTAAR1 agonist that also desensitize TAAR1 receptor response. It is filed as functional.

Experiment [12] concerns the target T4, Trace amine-associated receptor 1. Kind of experiment: Fluorescence-based cell-based high throughput dose response assay to identify agonists of the human trace amine associated receptor 1 (TAAR1). Type of experiment: functional.
Experiment [13] in a line: cells. It is filed as functional, cell-based. This is another data set of the same source.
Experiment [14] is described as follows: P. falciparum Dd2 growth inhibitors, dose response, SYBR Green, cherry-picked samples (AID 1159567). Type of experiment: functional, cell-based.

Albumin, sequence (P02769 whole entry): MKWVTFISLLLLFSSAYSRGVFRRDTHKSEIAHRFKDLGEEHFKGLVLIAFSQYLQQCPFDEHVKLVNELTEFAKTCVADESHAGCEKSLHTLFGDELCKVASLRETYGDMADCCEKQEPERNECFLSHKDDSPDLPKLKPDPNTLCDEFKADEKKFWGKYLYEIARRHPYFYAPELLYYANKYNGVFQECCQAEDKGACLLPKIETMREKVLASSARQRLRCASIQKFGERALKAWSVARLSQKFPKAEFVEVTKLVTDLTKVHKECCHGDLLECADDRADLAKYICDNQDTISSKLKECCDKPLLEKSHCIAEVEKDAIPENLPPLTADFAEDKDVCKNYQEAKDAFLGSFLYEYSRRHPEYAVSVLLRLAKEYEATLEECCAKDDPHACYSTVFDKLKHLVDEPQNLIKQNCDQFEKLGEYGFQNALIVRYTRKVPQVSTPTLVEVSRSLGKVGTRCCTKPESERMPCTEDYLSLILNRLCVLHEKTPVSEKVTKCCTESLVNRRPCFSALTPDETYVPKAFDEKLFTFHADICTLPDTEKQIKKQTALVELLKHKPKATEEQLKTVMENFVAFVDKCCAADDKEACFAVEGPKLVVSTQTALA
Cytochrome P450 2C19, sequence (P33261 whole entry): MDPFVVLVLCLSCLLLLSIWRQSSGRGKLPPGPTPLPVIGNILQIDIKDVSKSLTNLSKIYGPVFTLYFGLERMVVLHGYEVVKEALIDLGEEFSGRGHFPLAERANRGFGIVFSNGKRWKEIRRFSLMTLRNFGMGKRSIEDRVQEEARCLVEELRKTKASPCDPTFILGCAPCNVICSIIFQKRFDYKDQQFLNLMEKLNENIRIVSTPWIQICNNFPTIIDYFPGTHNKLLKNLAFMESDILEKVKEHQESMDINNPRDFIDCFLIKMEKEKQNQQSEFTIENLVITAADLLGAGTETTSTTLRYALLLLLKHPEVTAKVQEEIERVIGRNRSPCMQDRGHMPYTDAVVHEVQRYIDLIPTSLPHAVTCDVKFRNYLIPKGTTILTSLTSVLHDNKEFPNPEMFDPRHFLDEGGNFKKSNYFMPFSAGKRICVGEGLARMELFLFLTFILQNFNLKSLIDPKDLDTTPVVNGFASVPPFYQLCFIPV
Induced myeloid leukemia cell differentiation protein Mcl-1, sequence (Q07820 whole entry): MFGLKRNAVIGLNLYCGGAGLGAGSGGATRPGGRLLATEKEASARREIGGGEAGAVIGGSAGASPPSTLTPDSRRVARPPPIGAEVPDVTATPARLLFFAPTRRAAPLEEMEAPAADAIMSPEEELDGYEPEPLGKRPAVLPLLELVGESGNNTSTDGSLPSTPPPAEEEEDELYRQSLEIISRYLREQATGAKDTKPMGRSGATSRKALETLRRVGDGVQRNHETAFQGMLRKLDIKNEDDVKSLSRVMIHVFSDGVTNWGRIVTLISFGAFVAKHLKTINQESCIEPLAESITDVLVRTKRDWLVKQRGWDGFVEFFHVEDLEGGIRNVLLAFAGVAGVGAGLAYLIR

The AC50 is the concentration at which the activity in the assay is half-maximal. On to `C[C@H]1CN([C@@H](C)CO)C(=O)c2cccc(NC(=O)c3ccncc3)c2O[C@@H]1CN(C)Cc1cc(Cl)ccc1Cl`, for which the AC50 in [1] was 0.0573 µM (active).

A word on the IC50: it is the concentration needed to halve the response being measured. Consider `CN=C(S)NNC(=O)c1oc2nc(-c3ccccc3)cc(-c3ccco3)c2c1N`, for which the IC50 at Albumin is > 94.1 µM (inactive).

What is called EC50 is the concentration that produces a half-maximal response. With `C=CCN1C(=O)[C@@H](CC(=O)N2CCSCC2)[C@]2(C(=O)OC)CCCCC=C12`, in experiment [2], the EC50 is > 67.5 µM (inactive).

As to `Cc1cc(/C=N/n2c(COc3ccccc3C)nc3ccccc3c2=O)c(O)c([N+](=O)[O-])c1`, in the experiment with INS1, the AC50 is 2.99 µM (active). The figures for the IC50 (in experiment [3]; at Albumin) were 4.58 µM (active) and > 94.1 µM (inactive), respectively. The EC50 in [4] was > 150 µM (inactive); in [5] it was 6.51 µM (active); in experiment [6] it was 1 µM (active); in [7], 1.37 µM (active).

Broadly, the Ki is the equilibrium dissociation constant of an inhibitor or competing ligand from its target. With `CCOC(=O)Cc1cc(O)n2nc(C)c(-c3ccccc3)c2n1`, the AC50 at Cytochrome P450 2C19 was 22.4 µM (inconclusive); at Cytochrome P450 2C9, 39.8 µM (inconclusive). Besides, the Ki at fMet-Leu-Phe receptor was 36.8 µM (inactive).

Turning to `O=C(N/N=C/c1cc(Br)ccc1O)c1cccc(N2CCCC2=O)c1`, the EC50 in experiment [4] was 15.4 µM (inconclusive); in the experiment “cells [8]”, > 350 µM (not active); in “cells [9]”, 7.74 µM (active); in experiment [7] it was 2.33 µM (active). In addition, the results for the IC50 at Aminopeptidase N and on Albumin were 38.3 µM (active) and > 94.1 µM (inactive), respectively.

As for `CN1C(=O)c2cc(NC(=O)NC3CCCC3)ccc2OC[C@H]2O[C@@H](CC(=O)NC3CCC3)CC[C@@H]21`, the AC50 in the experiment with HeLa was 25.9 µM (active).

For `COc1ccc(C)cc1NC(=O)C1CCCCC1C(=O)O` (centres undefined), the Ki at fMet-Leu-Phe receptor was > 66.7 µM (inactive).

`COc1cc(C2c3cc4c(cc3OC(NCCc3ccccc3)C2C)OCO4)cc(OC)c1OC` (centres undefined): the IC50 in the experiment “cells [10]” is > 29.9 µM (inactive); in [11] it was 0.261 µM (active). The EC50 in experiment [12] was 0.0239 µM (active); in “cells [13]”, > 29.9 µM (inactive).

`Cc1cc2ncc(-c3ccccc3)nc2cc1C` [AG1295]: the EC50 in experiment [2] was > 67.5 µM (inactive).

In the case of `OC[C@H]1[C@H](c2ccc(Br)cc2)[C@@H]2CN(Cc3ccccn3)CCCCN12`, the AC50 in experiment [1] was 3.71 µM (active).

As for `CC(C)(C)[S+]([O-])N1Cc2cc(C(=O)NCc3ccc4c(c3)OCO4)nc(-c3cccc(C#CCC4CCCC4)c3)c2[C@@H]1CCO` (some centres undefined), the AC50 in experiment [14] was 3.54 µM (active); in [1], 0.883 µM (active).
